Results from patent US20080171756A1, “N-Substituted Glycine Derivatives: Prolyl Hydroxylase Inhibitors” (priority 2007, published 2008).

Tested on: Hep3B cells
Test: Epo protein produced by Hep3B cell line, ELISA / AlphaLISA
Assay type: cell-based
Settings: Homo sapiens, 48 hours incubation, 100 micromolar = maximum concentration tested
Protocol: Hep3B cells obtained from the American Type Culture Collection (ATCC) are seeded at 2×10̂4 cells/well in Dulbecco's Modified Eagle Medium (DMEM)+10% FBS in 96-well plates. Cells are incubated at 37deg C./5% CO2/90% humidity (standard cell culture incubation conditions). After overnight adherence, medium is removed and replaced with DMEM without serum containing test compound or DMSO negative control. Following 48 hours incubation, cell culture medium is collected and assayed by ELISA to quantitate Epo protein.
Hep3B cells obtained from the American Type Culture Collection (ATCC) are seeded at 2×10̂4 cells/well in Dulbecco's Modified Eagle Medium (DMEM)+10% FBS in 96-well plates. Cells are incubated at 37deg C./5% CO2/90% humidity (standard cell culture incubation conditions). After overnight adherence, medium is removed and replaced with DMEM with 2% serum containing test compound or DMSO negative control. Following 48 hours incubation, cell culture medium is collected and either frozen for later assay or assayed immediately by AlphaLISA to quantitate Epo protein.

Row | Structure (SMILES) | EC50
1 | O=C(O)CNC(=O)c1c(O)nc(-c2cccc(C(=O)O)c2)n(Cc2ccccc2)c1=O [Example 26, 3-[5-{[(Carboxymethyl)amino]carbonyl}-4-hydroxy-6-oxo-1-(phenylmethyl)-1,6-dihydro-2-pyrimidinyl]benzoic acid] | > 100 µM
2 | O=C(O)CNC(=O)c1c(O)nc(-c2ccccc2)[nH]c1=O [Example 2, N-[(4-Hydroxy-6-oxo-2-phenyl-1,6-dihydro-5-pyrimidinyl)carbonyl]glycine] | > 100 µM
3 | CC(C)CC(CC(C)C)c1nc(O)c(C(=O)NCC(=O)O)c(=O)n1Cc1ccc(C(C)(C)C)cc1 [Example 48] | > 100 µM
4 | O=C(O)CNC(=O)c1c(O)nc(-c2ccccc2Cl)n(Cc2ccccc2)c1=O [Example 30, N-{[2-(2-Chlorophenyl)-4-hydroxy-6-oxo-1-(phenylmethyl)-1,6-dihydro-5-pyrimidinyl]carbonyl}glycine] | > 100 µM
5 | Cc1cccc(C)c1-c1nc(O)c(C(=O)NCC(=O)O)c(=O)n1Cc1ccc(C(C)(C)C)cc1 [Example 40, N-{[1-{[4-(1,1-Dimethylethyl)phenyl]methyl}-2-(2,6-dimethylphenyl)-4-hydroxy-6-oxo-1,6-dihydro-5-pyrimidinyl]carbonyl}glycine] | > 100 µM
6 | CC(C)(C)c1ccc(Cn2c(-c3ccccc3-c3cc(F)cc(F)c3)nc(O)c(C(=O)NCC(=O)O)c2=O)cc1 [Example 47, N-[(2-(3′,5′-Difluoro-2-biphenylyl)-1-{[4-(1,1-dimethylethyl)phenyl]methyl}-4-hydroxy-6-oxo-1,6-dihydro-5-pyrimidinyl)carbonyl]glycine] | > 100 µM
7 | CC(C)(C)c1ccc(Cn2c(-c3c(Br)cccc3Br)nc(O)c(C(=O)NCC(=O)O)c2=O)cc1 [Example 42, N-[(2-(2,6-Dibromolphenyl)-1-{[4-(1,1-dimethylethyl)phenyl]methyl}-4-hydroxy-6-oxo-1,6-dihydro-5-pyrimidinyl)carbonyl]glycine] | > 100 µM
8 | CC(C)(C)c1ccc(Cn2c(-c3c(Cl)cccc3-c3ccccc3)nc(O)c(C(=O)NCC(=O)O)c2=O)cc1 [Example 55, N-[(2-(3-Chloro-2-biphenylyl)-1-{[4-(1,1-dimethylethyl)phenyl]methyl}-4-hydroxy-6-oxo-1,6-dihydro-5-pyrimidinyl)carbonyl]glycine] | > 100 µM
9 | CC(C)(C)c1ccc(Cn2c(-c3c(Cl)cc(Cl)cc3Cl)nc(O)c(C(=O)NCC(=O)O)c2=O)cc1 [Example 57, N-{[1-{[4-(1,1-Dimethylethyl)phenyl]methyl}-4-hydroxy-6-oxo-2-(2,4,6-trichlorophenyl)-1,6-dihydro-5-pyrimidinyl]carbonyl}glycine] | > 100 µM
10 | O=C(O)CNC(=O)c1c(O)nc(-c2cccc(C(=O)O)c2)[nH]c1=O [Example 18, 3-(5-{[(Carboxymethyl)amino]carbonyl}-4-hydroxy-6-oxo-1,6-dihydro-2-pyrimidinyl)benzoic acid] | > 100 µM
11 | CC(C)(C)c1ccc(Cn2c(-c3c(-c4ccccc4)cccc3-c3ccccc3)nc(O)c(C(=O)NCC(=O)O)c2=O)cc1 [Example 43, N-{[1-{[4-(1,1-Dimethylethyl)phenyl]methyl}-4-hydroxy-6-oxo-2-(1,1′:3′,1″-terphenyl-2′-yl)-1,6-dihydro-5-pyrimidinyl]carbonyl}glycine] | > 100 µM
12 | CC(C)(C)c1ccc(Cn2c(-c3c(Cl)cccc3Cl)nc(O)c(C(=O)NCC(=O)O)c2=O)cc1 [Example 29, N-[(2-(2,6-Dichlorophenyl)-1-{[4-(1,1-dimethylethyl)phenyl]methyl}-4-hydroxy-6-oxo-1,6-dihydro-5-pyrimidinyl)carbonyl]glycine] | > 100 µM
13 | O=C(O)CNC(=O)c1c(O)nc(-c2cccc(C(=O)NCc3ccccc3)c2)n(Cc2ccccc2)c1=O [Example 20, N-{[4-Hydroxy-6-oxo-1-(phenylmethyl)-2-(3-{[(phenylmethyl)amino]carbonyl}phenyl)-1,6-dihydro-5-pyrimidinyl]carbonyl}glycine] | > 100 µM
14 | CC(C)(C)c1ccc(Cn2c(-c3ccccc3-c3ccccc3)nc(O)c(C(=O)NCC(=O)O)c2=O)cc1 [Example 46, N-[(2-(2-Biphenylyl)-1-{[4-(1,1-dimethylethyl)phenyl]methyl}-4-hydroxy-6-oxo-1,6-dihydro-5-pyrimidinyl)carbonyl]glycine] | > 100 µM
15 | O=C(O)CNC(=O)c1c(O)nc(-c2c(Cl)cccc2-c2ccccc2)n(Cc2ccccc2Cl)c1=O [Example 56, N-({2-(3-Chloro-2-biphenylyl)-1-[(2-chlorophenyl)methyl]-4-hydroxy-6-oxo-1,6-dihydro-5-pyrimidinyl}carbonyl)glycine] | > 100 µM
16 | CC(C)(C)c1ccc(Cn2c(-c3ccccc3-c3ccc(C(F)(F)F)cc3)nc(O)c(C(=O)NCC(=O)O)c2=O)cc1 [Example 49, N-({1-{[4-(1,1-Dimethylethyl)phenyl]methyl}-4-hydroxy-6-oxo-2-[4′-(trifluoromethyl)-2-biphenylyl]-1,6-dihydro-5-pyrimidinyl}carbonyl)glycine] | > 100 µM
